The text below walks through data of patent US20080227752A1, “Methods to Inhibit Histone Acetyltransferase Using Glycosaminoglycans” (Trustees of Boston University, priority 2004, published 2008).

The target of assay [1] is T1, p300 HAT domain (Homo sapiens, UniProt Q09472).
T1 construct: 20 U/mL of HAT enzyme (p300 HAT domain; from Upstate); purchased Upstate (Lake Placid, N.Y.)
T1 sequence (Q09472 1287-1663 limits assumed): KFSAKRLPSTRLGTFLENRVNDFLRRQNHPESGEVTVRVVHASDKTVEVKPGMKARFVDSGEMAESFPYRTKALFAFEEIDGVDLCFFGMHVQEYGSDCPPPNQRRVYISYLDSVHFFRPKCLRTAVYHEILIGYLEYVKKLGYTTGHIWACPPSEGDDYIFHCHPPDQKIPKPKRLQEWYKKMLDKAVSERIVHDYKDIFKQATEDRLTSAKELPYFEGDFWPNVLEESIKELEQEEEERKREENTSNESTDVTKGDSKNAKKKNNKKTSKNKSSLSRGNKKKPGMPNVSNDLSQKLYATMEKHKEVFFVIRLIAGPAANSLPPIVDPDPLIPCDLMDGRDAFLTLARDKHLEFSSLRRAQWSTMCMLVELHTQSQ
The experiment in a line: In vitro HAT activity assay, biotinylated histone H4 peptide substrate, streptavidin capture. In kind it is biochemical. The method, then: Biotinylated histone H4 peptide (substrate) is incubated with recombinant HAT enzyme (p300 catalytic domain) and ^3H-Acetyl-CoA, resulting in the covalent transfer of ^3H-acetate to the substrate. The ^3H-acetylated substrate can be extracted using immobilized streptavidin and counted in a scintillation counter. Thus, the amount of ^3H-acetylated substrate is a direct measure of HAT enzyme activity. Additional assays for HAT activity use core histones as the substrate and the ^3H-acetylated histone reaction products were separated from ^3H-Acetyl-CoA by membrane filtration.
Various concentrations of heparin were incubated in the presence of biotinylated histone H4 peptide, recombinant p300 catalytic domain, and [^3H]-acetyl-CoA for 1 hr at 30° C. Immobilized streptavidin was used to sequester the biotinylated substrate and was counted in a scintillation counter. Data presented are means of duplicates ±1 SE and are representative of five separate experiments. The amount of [^3H] associated with the immobilized streptavidin-biotinylated substrate in the absence of HAT enzyme (negative control) was 54.2±12.0.
HAT activity was assessed in vitro as outlined in FIG. 2. In a 1.7 mL microcentrifuge tube, 100 μL of substrate (biotinylated histone H4 peptide in 50 mM Tris, pH 7.4, 1 mM EDTA; from Pierce), 100 μL of a 5 mg/mL BSA solution (in H2O), 10.5 μL of 10×HAT buffer (500 mM Tris, pH 7.4, 10 mM EDTA), 20 U/mL of HAT enzyme (p300 HAT domain; from Upstate), and 1 μCi/mL of [^3H] Acetyl-CoA (Amersham) were mixed together and the reaction was allowed to proceed at 30° C. for 1 hour. Following this incubation, 100 μL of a 1:1 slurry of immobilized streptavidin (Pierce) pre-equilibrated in 1×HAT buffer (50 mM Tris, pH 7.4, 1 mM EDTA) was added and the sample was incubated for 30 min at RT on a rotating platform. After centrifugation at 10,000 g for 4 min, the supernatant containing the excess reactants was removed and the pellet containing the acetylated substrate bound to the immobilized streptavidin was washed 3 times with 500 μL RIPA buffer (50 mM Tris, pH 7.4, 150 mM NaCl, 1 mM EDTA, 1% NP-40, 0.5% SDC, 0.1% SDS). After the final wash, the pellet was resuspended in 500 μL 1×HAT buffer, diluted in EcoLite, and counted in a scintillation counter. Because of sample volume restrictions, reaction volumes were scaled down in some experiments.

Assay [2] concerns the target T1, p300 HAT domain. The experiment in a line: Core histone acetylation filter binding HAT assay, p300. The conditions noted are these: core histones, 30 minutes 30° C. It is filed as biochemical. The method, then: In the presence of 0.5 μCi [^3H]acetyl Co A, 10 μg core histones was incubated with either 0.5 μg pCAF (filled circles, […]) or 0.83 μg p300 HAT domain (open circles, ∘) and the indicated heparin concentrations for 30 minutes at 30° C. Formation of [^3H]acetylated core histones was determined by vacuum filtration of the samples across a nitrocellulose membrane and quantitated by liquid scintillation counting. The data is expressed as the mean % Control ±SD. Background CPM in samples without added enzyme was 5781.25 while [^3H]acetylated histone CPM in samples without heparin were 16484.5 for the pCAF containing samples and 9960.5 for the p300 HAT domain samples.
Heparin-mediated inhibition of HAT activity was determined using two independent methods. The first assay method used a modified protocol to measure the ability of pCAF or p300 to acetylate a synthetic, biotinylated peptide of histone H3 or H4 in the absence and presence of heparin or its derivatives. Commercially available pCAF or p300 HAT domain were added to an iced reactions mixture containing 3 μg biotinylated Histone H3 or H4 peptide, 50 mM tris pH 7.4, 1 mM EDTA with and without the indicated concentrations of heparin. […] The filter was allowed to air dry and the filters were processed and counted using liquid scintillation methods.

The term IC50 denotes the concentration needed to halve the response being measured.

With heparin [reference compound], at p300 HAT domain [1] (34 μg/mL), the “inhibition of HAT activity” value is recorded as “almost complete inhibition”. The IC50 at p300 HAT domain [1] (molecular weight ~15 kD, read-out: IC50 for HAT activity, molar equivalent) was approximately 1.1 µM. The “50% inhibition (IC50)” value on p300 HAT domain [2] was approximately 5 µg/mL.
